The numbers were not newly measured in patent publication EP2706070A1, “Combination treatments involving antibodies to human PCSK9” (SANOFI, priority 2012, dated 2014), which cites them from elsewhere.

For data set [1] the following is noted: elimination (ezetimibe and its glucuronide: from plasma, after oral administration); cited from earlier work.
A further data set has as its system LDL-C. Conditions: ezetimibe 10 mg/day added to maximal dose of statins, genotype-confirmed hoFH; cited from earlier work.

In the case of `O=C(O)[C@H]1O[C@@H](Oc2ccc([C@@H]3[C@@H](CC[C@H](O)c4ccc(F)cc4)C(=O)N3c3ccc(F)cc3)cc2)[C@H](O)[C@@H](O)[C@@H]1O` [ezetimibe-glucuronide], the half-life result in data set [1] is listed as “approximately 22 hours”.

On to `O=C1[C@H](CC[C@H](O)c2ccc(F)cc2)[C@@H](c2ccc(O)cc2)N1c1ccc(F)cc1` [ezetimibe], for which the “total reduction of LDL-C levels” value in the data set on LDL-C is listed as 27%.
